The text below walks through data of PMC3433414, “Oral Administration of the Pimelic Diphenylamide HDAC Inhibitor HDACi 4b Is Unsuitable for Chronic Inhibition of HDAC Activity in the CNS In Vivo” (PLoS ONE, 2012).

The target in one data set is T1, HDAC6 (Homo sapiens, UniProt Q9UBN7).
T1 construct: full length HDAC6 (cat#50006); purchased BPS Bioscience (San Diego, CA) 50006
The data set is described as follows: Two-step fluorogenic deacetylase assay, recombinant HDAC6. The settings on record: up to 50 µM. It counts as biochemical. The source says:
(§1) To assess the biochemical and cellular potency of 4b and its conversion products/metabolites, we utilized the two-step fluorogenic assay which measures the HDAC-mediated catalytic conversion of synthetic acetylated lysine substrates. In brief, on deacetylation of the substrates by HDAC activity, a protease site is unmasked which allows subsequent trypsin-mediated cleavage and release of the highly flourescent AMC molecules in a subsequent step of the assay. The substrates used were Lys_Ac_AMC (Bachem I-1875) for HDAC3 and (Ac)Arg-Gly-Lys(Ac) (Bachem I-1925) for HDAC1 and HDAC2. […] However, the relatively labile and sterically more demanding trifluoracetyl group is readily hydrolyzed by the catalytically less avid Class IIa enzymes, allowing measurement of Class IIa activity using the 2-step fluorogenic assay. […]
(§2) For evaluation of the class selectivity of the compounds, we assessed inhibition against purified recombinant human full length HDAC1 (cat# 50051), HDAC2 (cat# 50052), HDAC3-NcoR2 (cat# 50003) and HDAC8 (cat# 50008): as representative of Class I activity; catalytic domain HDAC4(αα 648–1057), HDAC5 (αα 657–1123; cat # 50005), HDAC7 (αα 518-end; cat # 50007) and HDAC9 (αα 604–1066; cat # 50009) activity: representing all Class IIa activity; and full length HDAC6 (cat#50006): representing Class IIb activity. […]

In the next data set the target is T2, HDAC7 (Homo sapiens, UniProt Q8WUI4).
T2 construct: HDAC7 (αα 518-end; cat # 50007); purchased BPS Bioscience (San Diego, CA) 50007
T2 sequence (Q8WUI4 518-952 limits assumed): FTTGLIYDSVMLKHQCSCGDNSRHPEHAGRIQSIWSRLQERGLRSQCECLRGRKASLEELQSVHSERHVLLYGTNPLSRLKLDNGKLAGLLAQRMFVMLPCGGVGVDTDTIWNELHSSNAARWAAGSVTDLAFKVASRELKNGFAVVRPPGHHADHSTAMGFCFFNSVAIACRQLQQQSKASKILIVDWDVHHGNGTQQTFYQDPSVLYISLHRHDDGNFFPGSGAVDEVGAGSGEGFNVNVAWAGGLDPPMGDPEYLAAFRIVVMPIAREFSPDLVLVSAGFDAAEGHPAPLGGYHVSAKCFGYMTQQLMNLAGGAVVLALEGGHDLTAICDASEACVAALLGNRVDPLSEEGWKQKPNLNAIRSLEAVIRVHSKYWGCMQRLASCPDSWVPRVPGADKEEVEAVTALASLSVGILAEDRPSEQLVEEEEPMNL
The experiment in a line: Two-step fluorogenic deacetylase assay, recombinant HDAC7. The data set is classed as biochemical. The settings on record: up to 50 µM.
Excerpt: as §1, §2

Data set [1] is described as follows: Partition into erythrocytes. It counts as in vitro ADME. The following applies: mouse.
A short description of data set [2]: Chemical stability in formulation or solution. It counts as physicochemical. The following applies: free base; LC-MS day 1 and after 7 days; with or without heating. On the procedure:
Thomas and colleagues reported that a solution of 4b at 1 mg/mL was previously obtained using this procedure. […] We therefore prepared both TFA and hydrochloride (HCl) salts of 4b to establish whether they could offer improved solubility. Neither salt form of 4b was particularly soluble in water (<1 mg/ml). […] A study of the stability of the TFA salt also raised another more worrying issue in the use of 2-hydroxypropyl-β-cyclodextrin–complexed 4b salts for potential in vivo studies. […] The 4b. […] The lower than expected initial quantification of 4b was most likely due to the TFA salt rapidly degrading upon heating. Indeed, we always found the presence of the cyclised benzimidazole conversion product, named throughout as product C1, in the salt formulations even at t = 0 after preparation. Furthermore, the suspension was not stable upon standing in the dark with gentle shaking at room temperature, with a further 28% decrease observed in parent (4b) concentration on day 7 analysis, compared to day 1.
According to Thomas et al, verification of an acute pharmacodynamic response (the reversal of transcriptional dysregulation in the R6/2 model) was achieved by the repeated once daily injection of 150 mg/kg 4b in 50∶50 DMSO: PBS for three consecutive days. […] The lack of any pharmacodynamic response predictive of central Class I HDAC inhibition when 4b was dosed orally at 150 mg/kg twice daily for 5 days confirmed this prediction.

T1 sequence (Q9UBN7 whole entry): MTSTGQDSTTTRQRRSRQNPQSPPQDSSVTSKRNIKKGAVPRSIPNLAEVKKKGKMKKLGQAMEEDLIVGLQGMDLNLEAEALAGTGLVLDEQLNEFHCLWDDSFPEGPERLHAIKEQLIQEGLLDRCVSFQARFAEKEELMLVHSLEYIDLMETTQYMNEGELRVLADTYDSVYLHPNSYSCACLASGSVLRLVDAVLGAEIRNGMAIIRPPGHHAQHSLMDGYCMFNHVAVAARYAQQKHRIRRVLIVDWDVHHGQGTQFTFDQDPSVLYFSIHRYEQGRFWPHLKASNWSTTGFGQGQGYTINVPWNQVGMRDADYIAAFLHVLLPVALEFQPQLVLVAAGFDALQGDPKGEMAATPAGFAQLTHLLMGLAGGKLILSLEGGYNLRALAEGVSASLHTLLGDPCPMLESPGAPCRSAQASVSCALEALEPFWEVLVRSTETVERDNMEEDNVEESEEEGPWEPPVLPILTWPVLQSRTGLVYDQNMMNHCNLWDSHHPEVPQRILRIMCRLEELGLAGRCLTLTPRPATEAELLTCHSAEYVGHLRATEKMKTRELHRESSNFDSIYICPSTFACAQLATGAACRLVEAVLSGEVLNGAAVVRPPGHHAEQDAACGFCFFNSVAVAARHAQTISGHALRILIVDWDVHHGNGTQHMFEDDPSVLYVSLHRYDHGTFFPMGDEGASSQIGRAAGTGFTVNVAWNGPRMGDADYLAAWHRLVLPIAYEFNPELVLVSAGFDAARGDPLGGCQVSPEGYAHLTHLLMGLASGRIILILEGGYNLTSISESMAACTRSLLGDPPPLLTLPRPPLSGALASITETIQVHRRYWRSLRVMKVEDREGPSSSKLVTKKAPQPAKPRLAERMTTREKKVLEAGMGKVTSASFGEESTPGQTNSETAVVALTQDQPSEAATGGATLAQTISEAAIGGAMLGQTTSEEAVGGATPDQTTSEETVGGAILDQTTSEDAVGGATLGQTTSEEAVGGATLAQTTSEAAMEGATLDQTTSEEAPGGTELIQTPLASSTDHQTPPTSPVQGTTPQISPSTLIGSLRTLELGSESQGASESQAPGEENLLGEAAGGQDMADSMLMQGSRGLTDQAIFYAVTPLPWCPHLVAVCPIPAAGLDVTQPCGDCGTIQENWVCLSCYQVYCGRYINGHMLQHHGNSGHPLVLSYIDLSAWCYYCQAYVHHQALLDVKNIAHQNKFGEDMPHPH

As to `Nc1ccccc1NC(=O)CCCCCC(=O)Nc1ccccc1` [Compound 4b], the “activity against HDAC6” value at HDAC6 is reported as “No activity”. In addition, the “activity against HDAC7” value on HDAC7 was “No activity”. Besides, the “concentrations in whole blood relative to plasma” value in data set [1] is “approximately 4 times”. Further, the blood plasma ratio in data set [1] (whole blood, data not shown) was approximately 3. The “degradation in cyclodextrin suspension” value in data set [2] is on record as “no degradation”.
